Experimental data reported in patent US12018008B2, “Crystalline forms of an androgen receptor modulator” (Aragon Pharmaceuticals, Inc., priority 2012, dated 2024).

Columns and labels:
[1] = Storage stability at 40° C. and 75% RH (XRPD); format: physicochemical; conditions: a week
[2] = Thermodynamic aqueous solubility; format: physicochemical; conditions: water, equilibrated at 25° C. for 24 hours, HPLC
Procedure: Aqueous solubility was determined by suspending sufficient compound in water to give a maximum final concentration of ≥20 mg·ml^−1 of the parent free-form of the compound. The suspension was equilibrated at 25° C. for 24 hours then the pH was measured. The suspension was then filtered through a glass fibre C filter into a 96 well plate unless stated otherwise. The filtrate was then diluted by a factor of 101. Quantitation was by HPLC with reference to a standard solution of approximately 0.1 mg·ml^−1 in DMSO. Different volumes of the standard, diluted and undiluted sample solutions were injected. The solubility was calculated using the peak areas determined by integration of the peak found at the same retention time as the principal peak in the standard injection.
Analysis was performed on an Agilent HP1100 series system equipped with a diode array detector and using ChemStation software vB.02.01-SR1.

[3] = Forcing drying conditions (60° C. at <20 mm Hg); format: physicochemical; conditions: 60° C. at <20 mm Hg for 8 days
[4] = Storage stability at 25° C. and 92% RH (XRPD); format: physicochemical; conditions: for Solid form stability on storage: 92% RH/25° C., on glass slide, after a week
Procedure: A sample of Form E was laid on a glass slide then placed in a box maintained at 92% RH/25° C.

[5] = Gravimetric vapour sorption (GVS); format: physicochemical; conditions: for Solid form stability under the GVS conditions (XRPD after GVS): 25° C., 0-90% RH
Procedure: Sorption isotherms were obtained using a SMS DVS Intrinsic moisture sorption analyser, controlled by SMS Analysis Suite software. The sample temperature was maintained at 25° C. by the instrument controls. The humidity was controlled by mixing streams of dry and wet nitrogen, with a total flow rate of 200 ml min^−1. The relative humidity was measured by a calibrated Rotronic probe (dynamic range of 1.0-100% RH), located near the sample. The weight change, (mass relaxation) of the sample as a function of % RH was constantly monitored by the microbalance (accuracy ±0.005 mg). Typically 5-20 mg of sample was placed in a tared mesh stainless steel basket under ambient conditions. The sample was loaded and unloaded at 40% RH and 25° C. (typical room conditions). A moisture sorption isotherm was performed as outlined below (2 scans giving 1 complete cycle). The standard isotherm was performed at 25° C. at 10% RH intervals over a 0.5-90% RH range. [table] The sample was recovered after completion of the isotherm and re-analyzed by XRPD.

[6] = Stability under ambient conditions; format: physicochemical; conditions: within a month
[7] = biological target: T1, T877A AR mutant (Homo sapiens, UniProt P10275, T878A); conditions: cited from earlier work
T1 sequence (P10275 1-920 T878A): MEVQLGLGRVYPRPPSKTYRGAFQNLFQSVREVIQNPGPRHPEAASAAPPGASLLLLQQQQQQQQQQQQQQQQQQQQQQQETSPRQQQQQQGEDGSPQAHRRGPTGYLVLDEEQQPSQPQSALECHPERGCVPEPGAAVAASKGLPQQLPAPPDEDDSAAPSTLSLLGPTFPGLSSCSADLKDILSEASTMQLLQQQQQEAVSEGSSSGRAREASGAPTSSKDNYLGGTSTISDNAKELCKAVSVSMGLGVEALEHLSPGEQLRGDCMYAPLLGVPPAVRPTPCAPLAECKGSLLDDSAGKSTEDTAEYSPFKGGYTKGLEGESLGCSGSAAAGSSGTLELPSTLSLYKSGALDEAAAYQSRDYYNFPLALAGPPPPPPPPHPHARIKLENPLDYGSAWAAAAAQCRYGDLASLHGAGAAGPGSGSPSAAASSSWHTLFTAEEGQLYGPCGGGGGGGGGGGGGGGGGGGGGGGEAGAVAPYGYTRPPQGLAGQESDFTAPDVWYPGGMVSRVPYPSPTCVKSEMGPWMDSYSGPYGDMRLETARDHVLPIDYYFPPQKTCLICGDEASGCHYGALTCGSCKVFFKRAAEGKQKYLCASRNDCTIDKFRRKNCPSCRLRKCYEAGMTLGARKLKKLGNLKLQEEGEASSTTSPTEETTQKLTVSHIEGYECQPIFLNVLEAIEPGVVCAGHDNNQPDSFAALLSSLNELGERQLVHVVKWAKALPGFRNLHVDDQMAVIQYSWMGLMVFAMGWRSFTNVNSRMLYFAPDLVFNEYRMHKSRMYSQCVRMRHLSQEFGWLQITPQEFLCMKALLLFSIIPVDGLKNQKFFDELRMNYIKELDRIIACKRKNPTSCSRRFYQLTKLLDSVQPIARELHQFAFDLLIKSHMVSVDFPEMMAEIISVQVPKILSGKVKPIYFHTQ

SMILES: CNC(=O)c1ccc(N2C(=S)N(c3cnc(C#N)c(C(F)(F)F)c3)C(=O)C23CCC3)cc1F [Form A, 4-[7-(6-cyano-5-trifluoromethylpyridin-3-yl)-8-oxo-6-thioxo-5,7-diazaspiro[3.4]oct-5-yl]-2-fluoro-N-methylbenzamide]
- Solid form stability on storage [1]: stable
- Aqueous Solubility (mg/mL) [2]: about 0.01 mg/mL
- Behaviour under forcing conditions [3]: lost ethanol, the XRPD pattern of the material stayed the same

SMILES: CNC(=O)c1ccc(N2C(=S)N(c3cnc(C#N)c(C(F)(F)F)c3)C(=O)C23CCC3)cc1F [Form B, 4-[7-(6-cyano-5-trifluoromethylpyridin-3-yl)-8-oxo-6-thioxo-5,7-diazaspiro[3.4]oct-5-yl]-2-fluoro-N-methylbenzamide]
- Solid form stability on storage [1]: stable
- Aqueous Solubility (mg/mL) [2]: about 0.004 mg/mL
- Solid form stability on storage (XRPD before and after) ([4]; 25° C. and 92% RH for 12 days): stable
- Solid form stability under the GVS conditions (XRPD after GVS) [5]: stable
- Hygroscopicity ([5]; GVS at 25° C.): not hygroscopic
- Uptake of water ([5]; GVS isotherm at 25° C., at 90% RH): less than 0.2%

SMILES: CNC(=O)c1ccc(N2C(=S)N(c3cnc(C#N)c(C(F)(F)F)c3)C(=O)C23CCC3)cc1F [Form C, 4-[7-(6-cyano-5-trifluoromethylpyridin-3-yl)-8-oxo-6-thioxo-5,7-diazaspiro[3.4]oct-5-yl]-2-fluoro-N-methylbenzamide]
- Solid form stability on storage [1]: stable

SMILES: CNC(=O)c1ccc(N2C(=S)N(c3cnc(C#N)c(C(F)(F)F)c3)C(=O)C23CCC3)cc1F [Form D, 4-[7-(6-cyano-5-trifluoromethylpyridin-3-yl)-8-oxo-6-thioxo-5,7-diazaspiro[3.4]oct-5-yl]-2-fluoro-N-methylbenzamide]
- Solid form stability on storage [1]: stable

SMILES: CNC(=O)c1ccc(N2C(=S)N(c3cnc(C#N)c(C(F)(F)F)c3)C(=O)C23CCC3)cc1F [Form E, 4-[7-(6-cyano-5-trifluoromethylpyridin-3-yl)-8-oxo-6-thioxo-5,7-diazaspiro[3.4]oct-5-yl]-2-fluoro-N-methylbenzamide]
- Solid form stability on storage [1]: transformed to Form A
- Solid form stability on storage [4]: transformed to Form A and a small amount of Form B
- Solid form stability under the GVS conditions (XRPD after GVS) [5]: transformed to Form A

SMILES: CNC(=O)c1ccc(N2C(=S)N(c3cnc(C#N)c(C(F)(F)F)c3)C(=O)C23CCC3)cc1F [Form F, 4-[7-(6-cyano-5-trifluoromethylpyridin-3-yl)-8-oxo-6-thioxo-5,7-diazaspiro[3.4]oct-5-yl]-2-fluoro-N-methylbenzamide]
- Solid form stability under ambient conditions [6]: transformed to Form A
- Solid form stability on storage [1]: transformed to Form A

SMILES: CNC(=O)c1ccc(N2C(=S)N(c3cnc(C#N)c(C(F)(F)F)c3)C(=O)C23CCC3)cc1F [Form G, 4-[7-(6-cyano-5-trifluoromethylpyridin-3-yl)-8-oxo-6-thioxo-5,7-diazaspiro[3.4]oct-5-yl]-2-fluoro-N-methylbenzamide]
- Solid form stability on storage [1]: stable

SMILES: CNC(=O)c1ccc(N2C(=S)N(c3cnc(C#N)c(C(F)(F)F)c3)C(=O)C23CCC3)cc1F [Form H, 4-[7-(6-cyano-5-trifluoromethylpyridin-3-yl)-8-oxo-6-thioxo-5,7-diazaspiro[3.4]oct-5-yl]-2-fluoro-N-methylbenzamide]
- Solid form stability on storage [1]: stable

SMILES: CNC(=O)c1ccc(N2C(=S)N(c3cnc(C#N)c(C(F)(F)F)c3)C(=O)C23CCC3)cc1F [Form I, 4-[7-(6-cyano-5-trifluoromethylpyridin-3-yl)-8-oxo-6-thioxo-5,7-diazaspiro[3.4]oct-5-yl]-2-fluoro-N-methylbenzamide]
- Solid form stability on storage [4]: transformed to Form B

SMILES: CNC(=O)c1ccc(N2C(=S)N(c3cnc(C#N)c(C(F)(F)F)c3)C(=O)C23CCC3)cc1F [Form J, 4-[7-(6-cyano-5-trifluoromethylpyridin-3-yl)-8-oxo-6-thioxo-5,7-diazaspiro[3.4]oct-5-yl]-2-fluoro-N-methylbenzamide]
- Solid form stability on storage [4]: transformed to Form B

SMILES: CC(C)(O)C(=O)Nc1ccc([N+](=O)[O-])c(C(F)(F)F)c1 [hydroxyflutamide]
- Activity in T877A AR mutant [7]: act as AR agonists
